Assay results from publication PMC4774972, “Activity and Predicted Nephrotoxicity of Synthetic Antibiotics Based on Polymyxin B” (Journal of Medicinal Chemistry, 2016).

Legend:
P. aeruginosa ATCC 27853 = experiment: microbe, parasite or virus in culture; type: cell-based, Pseudomonas aeruginosa; settings: MHB, 5 × 10^5 CFU/mL, read visually after 18 h at 37 °C
Procedure: (§1) Bacteria were either obtained from American Type Culture Collection (ATCC; Manassas, VA, USA) or independent academic clinical isolate collections, as listed in Table S2. Bacteria were cultured in nutrient broth (NB; Bacto Laboratories, catalog no. 234000) or Muller Hinton broth (MHB; Bacto Laboratories, catalog no. 211443) at 37 °C overnight with shaking (∼180 rpm). A sample of each culture was then diluted 50-fold in fresh MHB and incubated at 37 °C for 1.5–3 h with shaking (∼180 rpm). Compound stock solutions were prepared as 0.64 or 2.56 mg/mL in water. The compounds, at twice the final desired concentration, were serially diluted 2-fold across the wells of 96-well plates (Polystyrene, Corning, catalogue No. 3370). Mid log phase bacterial cultures (after 1.5–3 h incubation) were diluted to a final concentration of 5 × 10^5 colony forming units (CFU)/mL, and 50 μL was added to each well giving a final compound concentration range of 32 μg/mL to 0.015 μg/mL (128–0.06 μg/mL for colistin and polymyxin B against the polymyxin resistant clinical isolates). MICs were determined visually after 18 h of incubation at 37 °C, with the MIC defined as the lowest compound concentration at which no bacterial growth was visible.
(§2) Table S2. Bacterial strains used for Minimum Inhibitory Concentration (MIC) […]
(§3) Organism Strain Strain description Strain Source
(§4) Escherichia coli ATCC 25922 FDA strain Seattle 1946 ATCC
(§5) Klebsiella pneumoniae ATCC 13883 Control strain ATCC
(§6) Klebsiella pneumoniae ATCC 700603 Multi-drug resistant ATCC
(§7) Klebsiella pneumoniae BAA-2146 Metallo-beta-lactamase- ATCC
(§8) Acinetobacter baumannii ATCC 19606 Type strain ATCC
(§9) Pseudomonas aeruginosa ATCC 27853 Type strain ATCC
(§10) Pseudomonas aeruginosa FADDI-PA070 Clinical isolate, Nation and Li labs, polymyxin resistant Monash University
(§11) Clinical isolate, Wang Hengzhuang, Pseudomonas aeruginosa PA9704 polymyxin resistant University Hospital of […]
(§12) Ptyela Clinical isolate, Ilias Karaiskos and Acinetobacter baumannii Carbapenem & Helen Giamarellou
(§13) Clinical isolate, Medicine, Hygeia
(§14) Klebsiella pneumoniae Koprana Carbapenem, & General Hospital, […]
(§15) Clinical isolate, (Instituto Dante […]
(§16) polymyxin resistant Cardiologia, São […]

K. pneumoniae ATCC 13883 = experiment: microbe, parasite or virus in culture; type: cell-based, Klebsiella pneumoniae; settings: MHB, 5 × 10^5 CFU/mL, read visually after 18 h at 37 °C
[1] = system: K. pneumoniae CI 138-16357-20362, PmxR; experiment: microbe, parasite or virus in culture; type: cell-based, Klebsiella pneumoniae; settings: carbapenem & polymyxin resistant clinical isolate; MHB, 5 × 10^5 CFU/mL, 18 h at 37 °C
[2] = system: K. pneumoniae CI Koprana 100650661:1, PmxR; experiment: microbe, parasite or virus in culture; type: cell-based, Klebsiella pneumoniae; settings: carbapenem & polymyxin resistant clinical isolate; MHB, 5 × 10^5 CFU/mL, 18 h at 37 °C
[3] = system: primary human renal proximal tubule epithelial (hPT) cells; experiment: Nephrotoxicity assay, LDH release; type: cell-based; settings: primary human kidney cells
Source text: (§17) Primary human renal proximal tubule epithelial (hPT) cells were isolated and used for in vitro prediction of drug-induced nephrotoxicity[63],[64],[69] by measuring the release of metabolism enzymes, LDH and GGT, as previously described.[70]

HepG2 cells = experiment: Cytotoxicity assay (resazurin assay); type: cell-based, human; settings: 4000 cells/well, 24 h incubation with compound, fluorescence 560/590
HEK293 cells = experiment: Cytotoxicity assay (resazurin assay); type: cell-based, human; settings: 4000 cells/well, 24 h incubation with compound, fluorescence 560/590
[4] = system: P. aeruginosa FADDI-PA070, PmxR; type: cell-based, Pseudomonas aeruginosa; settings: polymyxin resistant clinical isolate; MHB, 5 × 10^5 CFU/mL, 18 h at 37 °C
[5] = system: P. aeruginosa PA9704, PmxR; type: cell-based, Pseudomonas aeruginosa; settings: polymyxin resistant clinical isolate; MHB, 5 × 10^5 CFU/mL, 18 h at 37 °C
A. baumannii ATCC 19606 = type: cell-based, Acinetobacter baumannii; settings: MHB, 5 × 10^5 CFU/mL, read visually after 18 h at 37 °C
Procedure: as §1, §2, §3, §4, §5, §6, §7, §8, §9, §10, §11, §12, §13, §14, §15, §16

[6] = system: S. aureus ATCC 25923, MSSA; experiment: microbe, parasite or virus in culture; type: cell-based, Staphylococcus aureus; settings: MHB, 5 × 10^5 CFU/mL, read visually after 18 h at 37 °C
[7] = system: A. baumannii CI Ptyela 100734512:2, PmxR; experiment: microbe, parasite or virus in culture; type: cell-based, Acinetobacter baumannii; settings: carbapenem & polymyxin resistant clinical isolate; MHB, 5 × 10^5 CFU/mL, 18 h at 37 °C
[8] = system: primary human renal proximal tubule epithelial (hPT) cells; experiment: Nephrotoxicity assay, GGT release; type: cell-based; settings: primary human kidney cells
Source text: as §17

[9] = system: K. pneumoniae ATTC BAA-2146, NDM-1 pos; type: cell-based, Klebsiella pneumoniae; settings: MHB, 5 × 10^5 CFU/mL, read visually after 18 h at 37 °C
Procedure: as §1, §2, §3, §4, §5, §6, §7, §8, §9, §10, §11, §12, §13, §14, §15, §16

[10] = system: K. pneumoniae ATCC 700603, MDR; type: cell-based, Klebsiella pneumoniae; settings: MHB, 5 × 10^5 CFU/mL, read visually after 18 h at 37 °C
Procedure: as §1, §2, §3, §4, §5, §6, §7, §8, §9, §10, §11, §12, §13, §14, §15, §16

E. coli ATCC 25922 = experiment: microbe, parasite or virus in culture; type: cell-based, Escherichia coli; settings: MHB, 5 × 10^5 CFU/mL, read visually after 18 h at 37 °C
Procedure: as §1, §2, §3, §4, §5, §6, §7, §8, §9, §10, §11, §12, §13, §14, §15, §16

Substance: 6Me-C7CO/ 6Me-C6CO Dab Thr Dab Dab Dab D-Leu Leu Dab Dab (lariat or depsi) [Colistin 2, polymyxin E (colistin), macrocyclic lipodecapeptide antibiotic, D-Leu at position-6, reference compound]
- MIC P. aeruginosa ATCC 27853 (P. aeruginosa ATCC 27853): 0.5 µg/mL
- MIC K. pneumoniae ATCC 13883 (K. pneumoniae ATCC 13883): 0.25 µg/mL
- MIC K. pneumoniae CI 138-16357-20362, PmxR [1]: 64 µg/mL
- MIC K. pneumoniae CI Koprana 100650661:1, PmxR [2]: >128 µg/mL
- LDH release CC50 [3]: 25 µg/mL
- HepG2 - CC50 (HepG2 cells): >300 µM
- HEK293 CC50 (HEK293 cells): >300 µM
- MIC P. aeruginosa FADDI-PA070, PmxR [4]: >32 µg/mL
- MIC P. aeruginosa PA9704, PmxR [5]: 128 µg/mL
- MIC A. baumannii ATCC 19606 (A. baumannii ATCC 19606): 0.25 µg/mL
- MIC S. aureus ATCC 25923, MSSA [6]: >128 µg/mL
- MIC A. baumannii CI Ptyela 100734512:2, PmxR [7]: >64 µg/mL
- GGT release CC50 [8]: 48 µg/mL
- MIC K. pneumoniae ATTC BAA-2146, NDM-1 pos [9]: 0.25 µg/mL
- MIC K. pneumoniae ATCC 700603, MDR [10]: 0.25 µg/mL
- MIC E. coli ATCC 25922 (E. coli ATCC 25922): 0.25 µg/mL
